The target of this assay is T1, recombinant guanylate cyclase reporter cell line (Rattus norvegicus, UniProt P20595).
T1 construct: expressed in transfected cells
T1 sequence (P20595 1-619): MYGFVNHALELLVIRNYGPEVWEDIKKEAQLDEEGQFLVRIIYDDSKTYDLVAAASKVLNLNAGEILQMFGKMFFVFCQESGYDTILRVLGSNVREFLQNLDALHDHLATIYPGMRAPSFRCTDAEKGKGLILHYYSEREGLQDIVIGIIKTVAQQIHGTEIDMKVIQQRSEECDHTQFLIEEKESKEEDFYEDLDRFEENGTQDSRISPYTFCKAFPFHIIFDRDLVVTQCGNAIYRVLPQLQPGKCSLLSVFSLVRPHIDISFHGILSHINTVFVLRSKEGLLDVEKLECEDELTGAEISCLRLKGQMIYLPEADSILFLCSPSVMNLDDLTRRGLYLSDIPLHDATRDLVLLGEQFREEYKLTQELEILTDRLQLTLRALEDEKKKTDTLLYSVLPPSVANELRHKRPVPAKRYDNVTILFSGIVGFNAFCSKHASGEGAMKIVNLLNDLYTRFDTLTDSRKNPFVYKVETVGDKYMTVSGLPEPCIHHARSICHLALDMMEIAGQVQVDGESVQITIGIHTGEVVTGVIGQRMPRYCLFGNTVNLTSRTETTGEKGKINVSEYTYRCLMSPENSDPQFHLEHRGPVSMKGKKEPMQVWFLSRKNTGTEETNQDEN
T1 sequence (P19686 1-690 partner): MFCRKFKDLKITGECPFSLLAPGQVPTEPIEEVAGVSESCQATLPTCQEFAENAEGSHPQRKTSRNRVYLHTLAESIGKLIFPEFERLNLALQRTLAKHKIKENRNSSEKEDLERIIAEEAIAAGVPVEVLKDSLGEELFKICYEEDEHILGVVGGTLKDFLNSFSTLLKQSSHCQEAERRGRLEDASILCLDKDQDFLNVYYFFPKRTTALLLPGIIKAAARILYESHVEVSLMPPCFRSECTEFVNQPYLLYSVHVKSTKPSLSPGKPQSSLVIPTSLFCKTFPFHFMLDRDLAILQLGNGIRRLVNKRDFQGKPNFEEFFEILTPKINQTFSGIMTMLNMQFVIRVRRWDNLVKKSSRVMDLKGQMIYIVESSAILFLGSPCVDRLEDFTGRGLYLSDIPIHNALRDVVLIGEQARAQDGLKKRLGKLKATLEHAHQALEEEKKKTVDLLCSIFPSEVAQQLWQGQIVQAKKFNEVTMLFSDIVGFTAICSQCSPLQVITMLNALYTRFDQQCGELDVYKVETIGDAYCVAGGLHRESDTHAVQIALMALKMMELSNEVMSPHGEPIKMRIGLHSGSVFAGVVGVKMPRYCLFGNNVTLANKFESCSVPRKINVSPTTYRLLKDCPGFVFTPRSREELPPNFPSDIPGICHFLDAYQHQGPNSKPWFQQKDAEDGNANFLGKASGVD
Briefly: Effect on a recombinant guanylate cyclase reporter cell line. In kind it is cell-based. The note with it: for EC50: half maximal effective concentration; for MEC: minimum effective concentration. How it is done: B-1. Effect on a Recombinant Guanylate Cyclase Reporter Cell Line
The cellular activity of the compounds according to the invention was determined using a recombinant guanylate cyclase reporter cell line, as described in F. Wunder et al., Anal. Biochem. 339, 104-112 (2005).

The text below walks through data of US20240101528A1, “SUBSTITUTED PYRAZOLO PIPERIDINE CARBOXYLIC ACIDS” (BAYER AKTIENGESELLSCHAFT, priority 2020, published 2024).

Where a name gives a salt, the structure may show the parent alone.

As for `O=C(O)c1cnn(C2CCCN(c3cc(Cl)ccc3-c3ccc(N4CCN(CC5CC5)CC4)cc3)C2)c1C(F)F` (single isomer, unassigned; enantiomer 1) [Example 10, 1-[1-{4-Chloro-4′-[4-(cyclopropylmethyl)piperazin-1-yl][1,1′-biphenyl]-2-yl}piperidin-3-yl]-5-(difluoromethyl)-1H-pyrazole-4-carboxylic acid hydrochloride (Enantiomer 1)], the EC50 turned out to be 9.2 nM and the MEC is reported as 0.8 nM.

Take `CC(C)(C)CN1CCN(c2ccc(-c3ccc(Cl)cc3N3CCCC(n4ncc(C(=O)O)c4C(F)F)C3)cc2)CC1` (single isomer, unassigned; enantiomer 1) [Example 12, 1-[(1-{4-Chloro-4′-[4-(2,2-dimethylpropyl)piperazin-1-yl][biphenyl]-2-yl}piperidin-3-yl]-5-(difluoromethyl)-1H-pyrazole-4-carboxylic acid hydrochloride (Enantiomer 1)]: the EC50 came to 61.5 nM and the MEC is on record as 10.0 nM.

`O=C(O)c1cnn(C2CCCN(c3cc(Cl)ccc3-c3ccc(N4CCN(CC5CC(F)(F)C5)CC4)cc3)C2)c1C(F)F` (single isomer, unassigned; enantiomer 1) [Example 15, 1-[1-(4-Chloro-4′-{4-[(3,3-difluorocyclobutyl)methyl]piperazin-1-yl}[biphenyl]-2-yl)piperidin-3-yl]-5-(difluoromethyl)-1H-pyrazole-4-carboxylic acid hydrochloride (Enantiomer 1)]: the EC50 is 6.7 nM and the MEC is 0.6 nM.

Regarding `O=C(O)c1cnn(C2CCCN(c3cc(Cl)ccc3-c3ccc(N4CCN(CC(F)F)CC4)cc3)C2)c1C(F)F` (single isomer, unassigned; enantiomer 1) [Example 18, 1-[1-{4-Chloro-4′-[4-(2,2-difluoroethyl)piperazin-1-yl][biphenyl]-2-yl}piperidin-3-yl]-5-(difluoromethyl)-1H-pyrazole-4-carboxylic acid hydrochloride (Enantiomer 1)], the EC50 is below 1 nM and the MEC was found to be 0.3 nM.

Regarding `CC(F)(F)CN1CCN(c2ccc(-c3ccc(Cl)cc3N3CCCC(n4ncc(C(=O)O)c4C(F)F)C3)cc2)CC1` (single isomer, unassigned; enantiomer 1) [Example 24, 1-(1-{4-Chloro-4′-[4-(2,2-difluoropropyl)piperazin-1-yl][biphenyl]-2-yl}piperidin-3-yl)-5-(difluoromethyl)-1H-pyrazole-4-carboxylic acid hydrochloride (Enantiomer 1)], the EC50 was determined as 1.8 nM and the MEC is reported as 0.3 nM.

Take `O=C(O)c1cnn(C2CCCN(c3cc(Cl)ccc3-c3ccc(N4CCN(C5COC5)CC4)cc3)C2)c1C(F)F` (single isomer, unassigned; enantiomer 1) [Example 42, 1-(1-{4-Chloro-4′-[4-(oxetan-3-yl)piperazin-1-yl][biphenyl]-2-yl}piperidin-3-yl)-5-(difluoromethyl)-1H-pyrazole-4-carboxylic acid hydrochloride (Enantiomer 1)]: the EC50 worked out at 71 nM and the MEC came to 30.0 nM.

`O=C(O)c1cnn(C2CCCN(c3cc(Cl)ccc3-c3ccc(N4CCCC4)cc3)C2)c1C(F)F` (single isomer, unassigned; enantiomer 1) [Example 44, 1-{1-[4-Chloro-4′-(pyrrolidin-1-yl)[biphenyl]-2-yl]piperidin-3-yl}-5-(difluoromethyl)-1H-pyrazole-4-carboxylic acid (Enantiomer 1)]: the 50% effective concentration (EC50) was found to be 45 nM and the MEC is 10.0 nM.

With `CC(C)CN1CCN(c2ccc(-c3ccc(Cl)cc3N3CC(n4ncc(C(=O)O)c4C(F)F)CC(F)(F)C3)cc2)CC1` (single isomer, unassigned; enantiomer 1) [Example 54, 1-{1-[4-Chloro-4′-(4-isobutylpiperazin-1-yl)[biphenyl]-2-yl]-5,5-difluoropiperidin-3-yl}-5-(difluoromethyl)-1H-pyrazole-4-carboxylic acid hydrochloride (Enantiomer 1)], the EC50 came out at 8.4 nM and the MEC was found to be 3.0 nM.

On to `O=C(O)c1cnn(C2CCCN(c3cc(Cl)ccc3-c3ccc(N4CCN(CC(F)(F)F)CC4)nc3)C2)c1C(F)F` (single isomer, unassigned; enantiomer 1) [Example 64, 1-[1-(5-Chloro-2-{6-[4-(2,2,2-trifluoroethyl)piperazin-1-yl]pyridin-3-yl}phenyl)piperidin-3-yl]-5-(difluoromethyl)-1H-pyrazole-4-carboxylic (Enantiomer 1)], for which the EC50 worked out at 1.9 nM and the MEC is 1.0 nM.

On to `O=C(O)c1cnn(C2CCCN(c3cc(Cl)ccc3-c3ccc(N4CCN(CCC(F)(F)F)CC4)nc3)C2)c1C(F)F` (single isomer, unassigned; enantiomer 1) [Example 66, 1-[1-(5-Chloro-2-{6-[4-(3,3,3-trifluoropropyl)piperazin-1-yl]pyridin-3-yl}phenyl)piperidin-3-yl]-5-(difluoromethyl)-1H-pyrazole-4-carboxylic acid hydrochloride (Enantiomer 1)], for which the EC50 was below 1 nM and the MEC is below 0.3 nM.

Turning to `CCN1CCN(c2ccc(-c3ccc(C(F)(F)F)cc3N3CCCC(n4ncc(C(=O)O)c4C(F)F)C3)cc2)CC1` (single isomer, unassigned; enantiomer 1) [Example 73, 5-(Difluoromethyl)-1-{1-[4′-(4-ethylpiperazin-1-yl)-4-(trifluoromethyl)[biphenyl]-2-yl]piperidin-3-yl}-1H-pyrazole-4-carboxylic acid hydrochloride (Enantiomer 1)], the EC50 amounted to 66 nM and the MEC turned out to be 10.0 nM.

For `CN1CCN(c2ccc(-c3ccc(Cl)cc3N3CCCC(n4ncc(C(=O)O)c4C(F)F)C3)cc2)CC1` (single isomer, unassigned; enantiomer 2) [Example 2, 1-{1-[4-Chloro-4′-(4-methylpiperazin-1-yl)[biphenyl]-2-yl]piperidin-3-yl}-5-(difluoromethyl)-1H-pyrazole-4-carboxylic acid hydrochloride (Enantiomer 2)], the EC50 came to 25.2 nM and the MEC turned out to be 7.0 nM.

For the compound `CCN1CCN(c2ccc(-c3ccc(Cl)cc3N3CCCC(n4ncc(C(=O)O)c4C(F)F)C3)cc2)CC1` (single isomer, unassigned; enantiomer 2) [Example 4, 1-{1-[4-Chloro-4′-(4-ethylpiperazin-1-yl)[biphenyl]-2-yl]piperidin-3-yl}-5-(difluoromethyl)-1H-pyrazole-4-carboxylic acid hydrochloride (Enantiomer 2)], the EC50 was determined as 13 nM and the MEC came out at 1.3 nM.

Consider `CC(C)N1CCN(c2ccc(-c3ccc(Cl)cc3N3CCCC(n4ncc(C(=O)O)c4C(F)F)C3)cc2)CC1` (single isomer, unassigned; enantiomer 2) [Example 6, 1-{1-[4-Chloro-4′-(4-isopropylpiperazin-1-yl)[biphenyl]-2-yl]piperidin-3-yl}-5-(difluoromethyl)-1H-pyrazole-4-carboxylic acid (Enantiomer 2)], for which the EC50 came to 33.5 nM and the MEC was 3.0 nM.

One may read the EC50 as the midpoint of the concentration-response curve.
